Laboratory results as given in PubChem BioAssay AID1963834 (Molecular Pharmacology Branch, DTP, NCI, 2024).

Tested on: 873145-292-R-J1-PDC complex spheroid viability
Assay: Anticancer human tumor 873145-292-R-J1-PDC patient-derived renal clear cell carcinoma cell line growth inhibition [POLQ]
Conditions: for IC50: curve of first compound; for viability, T/C: stronger effect = lower value; active = viability on the fitted dose curve at most 10% of control; inactive = the rest
Method in brief: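 Three-cell-type spheroids modelling solid tumor plus stroma served as the readout system; POL inhibitors were tested individually and in combination, concentration ranges set by clinical Cmax where known.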

[1] = second compound 0.0316 µM, first compound 0.0316 µM
[2] = second compound 0.0316 µM, first compound 0.1 µM
[3] = second compound 0.0316 µM, first compound 0.316 µM
[4] = second compound 0.0316 µM, first compound 1 µM
[5] = second compound 0.0316 µM, first compound 3.16 µM
[6] = second compound 0.0316 µM, first compound 10 µM
[7] = second compound 0.1 µM, first compound 0.0316 µM
[8] = second compound 0.1 µM, first compound 0.1 µM
[9] = second compound 0.1 µM, first compound 0.316 µM
[10] = second compound 0.1 µM, first compound 1 µM
[11] = second compound 0.1 µM, first compound 3.16 µM
[12] = second compound 0.1 µM, first compound 10 µM
[13] = second compound 0.316 µM, first compound 0.0316 µM
[14] = second compound 0.316 µM, first compound 0.1 µM
[15] = second compound 0.316 µM, first compound 0.316 µM
[16] = second compound 0.316 µM, first compound 1 µM
[17] = second compound 0.316 µM, first compound 3.16 µM
[18] = second compound 0.316 µM, first compound 10 µM
[19] = second compound 1 µM, first compound 0.0316 µM
[20] = second compound 1 µM, first compound 0.1 µM
[21] = second compound 1 µM, first compound 0.316 µM
[22] = second compound 1 µM, first compound 1 µM
[23] = second compound 1 µM, first compound 3.16 µM
[24] = second compound 1 µM, first compound 10 µM
[25] = second compound 3.16 µM, first compound 0.0316 µM
[26] = second compound 3.16 µM, first compound 0.1 µM
[27] = second compound 3.16 µM, first compound 0.316 µM
[28] = second compound 3.16 µM, first compound 1 µM
[29] = second compound 3.16 µM, first compound 3.16 µM
[30] = second compound 3.16 µM, first compound 10 µM
[31] = second compound 10 µM, first compound 0.0316 µM
[32] = second compound 10 µM, first compound 0.1 µM
[33] = second compound 10 µM, first compound 0.316 µM
[34] = second compound 10 µM, first compound 1 µM
[35] = second compound 10 µM, first compound 3.16 µM
[36] = second compound 10 µM, first compound 10 µM
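Note: spheroids exposed to compounds for 7 days before viability readout.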
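Throughout, for viability, T/C: luminescence signal used as surrogate for viable cell content; 100% = DMSO vehicle control viability.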

CC1COCCN1c1cc(C2(S(C)(=N)=O)CC2)nc(-c2ccnc3[nH]ccc23)n1 (stereo unspecified) + Cc1cccc(N(C)C(=O)C2C(O)CCN2c2nc(C)cc(C(F)(F)F)c2C#N)c1
inactive: viability, T/C [1] 98.1% | viability, T/C [2] 102% | viability, T/C [3] 101% | viability, T/C [4] 95.4% | viability, T/C [5] 83.6% | viability, T/C [6] 64.5% | viability, T/C [7] 104% | viability, T/C [8] 98.5% | viability, T/C [9] 90.1% | viability, T/C [10] 102% | viability, T/C [11] 75.1% | viability, T/C [12] 59.4% | viability, T/C [13] 115% | viability, T/C [14] 96.6% | viability, T/C [15] 98.8% | viability, T/C [16] 87.1% | viability, T/C [17] 92% | viability, T/C [18] 60.1% | viability, T/C [19] 101% | viability, T/C [20] 99.3% | viability, T/C [21] 93.5% | viability, T/C [22] 96% | viability, T/C [23] 75.3% | viability, T/C [24] 54.5% | viability, T/C [25] 99.4% | viability, T/C [26] 99.6% | viability, T/C [27] 99.6% | viability, T/C [28] 87.2% | viability, T/C [29] 77.4% | viability, T/C [30] 55.4% | viability, T/C [31] 90.8% | viability, T/C [32] 96.3% | viability, T/C [33] 98.4% | viability, T/C [34] 91.5% | viability, T/C [35] 64.9% | viability, T/C [36] 68.8%
> 10 µM: IC50 (second compound 0.0316 µM) | IC50 (second compound 0.1 µM) | IC50 (second compound 0.316 µM) | IC50 (second compound 1 µM) | IC50 (second compound 3.16 µM) | IC50 (second compound 10 µM)

CC(=O)O[C@H]1C(=O)[C@@]2(C)[C@H]([C@H](OC(=O)c3ccccc3)[C@]3(O)C[C@H](OC(=O)[C@H](O)[C@@H](NC(=O)c4ccccc4)c4ccccc4)C(C)=C1C3(C)C)[C@]1(OC(C)=O)CO[C@@H]1C[C@@H]2O + COC1C(OC(N)=O)C(O)C(Oc2ccc3c(O)c(NC(=O)c4ccc(O)c(CC=C(C)C)c4)c(=O)oc3c2C)OC1(C)C
> 3 µM: IC50 (second compound 0.0316 µM) | IC50 (second compound 0.1 µM) | IC50 (second compound 0.316 µM) | IC50 (second compound 1 µM) | IC50 (second compound 3.16 µM) | IC50 (second compound 10 µM)
inactive: viability, T/C (second compound 0.0316 µM, first compound 0.00949 µM) 90.9% | viability, T/C (second compound 0.0316 µM, first compound 0.03 µM) 67.2% | viability, T/C (second compound 0.0316 µM, first compound 0.0949 µM) 67.1% | viability, T/C (second compound 0.0316 µM, first compound 0.3 µM) 61.8% | viability, T/C (second compound 0.0316 µM, first compound 0.949 µM) 60.2% | viability, T/C (second compound 0.0316 µM, first compound 3 µM) 66.4% | viability, T/C (second compound 0.1 µM, first compound 0.00949 µM) 77.6% | viability, T/C (second compound 0.1 µM, first compound 0.03 µM) 75.2% | viability, T/C (second compound 0.1 µM, first compound 0.0949 µM) 73.9% | viability, T/C (second compound 0.1 µM, first compound 0.3 µM) 58.5% | viability, T/C (second compound 0.1 µM, first compound 0.949 µM) 58.5% | viability, T/C (second compound 0.1 µM, first compound 3 µM) 57.3% | viability, T/C (second compound 0.316 µM, first compound 0.00949 µM) 79.1% | viability, T/C (second compound 0.316 µM, first compound 0.03 µM) 73.5% | viability, T/C (second compound 0.316 µM, first compound 0.0949 µM) 66.6% | viability, T/C (second compound 0.316 µM, first compound 0.3 µM) 60.9% | viability, T/C (second compound 0.316 µM, first compound 0.949 µM) 55.7% | viability, T/C (second compound 0.316 µM, first compound 3 µM) 60.1% | viability, T/C (second compound 1 µM, first compound 0.00949 µM) 84% | viability, T/C (second compound 1 µM, first compound 0.03 µM) 77.7% | viability, T/C (second compound 1 µM, first compound 0.0949 µM) 74.8% | viability, T/C (second compound 1 µM, first compound 0.3 µM) 59% | viability, T/C (second compound 1 µM, first compound 0.949 µM) 57.6% | viability, T/C (second compound 1 µM, first compound 3 µM) 57.8% | viability, T/C (second compound 3.16 µM, first compound 0.00949 µM) 77.4% | viability, T/C (second compound 3.16 µM, first compound 0.03 µM) 72.5% | viability, T/C (second compound 3.16 µM, first compound 0.0949 µM) 70.1% | viability, T/C (second compound 3.16 µM, first compound 0.3 µM) 57.9% | viability, T/C (second compound 3.16 µM, first compound 0.949 µM) 58.1% | viability, T/C (second compound 3.16 µM, first compound 3 µM) 58.3% | viability, T/C (second compound 10 µM, first compound 0.00949 µM) 78.4% | viability, T/C (second compound 10 µM, first compound 0.03 µM) 69.1% | viability, T/C (second compound 10 µM, first compound 0.0949 µM) 62.3% | viability, T/C (second compound 10 µM, first compound 0.3 µM) 55.7% | viability, T/C (second compound 10 µM, first compound 0.949 µM) 64.1% | viability, T/C (second compound 10 µM, first compound 3 µM) 58.6%

O=C(c1cc(Cc2n[nH]c(=O)c3ccccc23)ccc1F)N1CCN(C(=O)C2CC2)CC1 + COC1C(OC(N)=O)C(O)C(Oc2ccc3c(O)c(NC(=O)c4ccc(O)c(CC=C(C)C)c4)c(=O)oc3c2C)OC1(C)C
> 10 µM: IC50 (second compound 0.0316 µM) | IC50 (second compound 0.1 µM) | IC50 (second compound 0.316 µM) | IC50 (second compound 1 µM) | IC50 (second compound 3.16 µM) | IC50 (second compound 10 µM)
inactive: viability, T/C [1] 112% | viability, T/C [2] 94.8% | viability, T/C [3] 106% | viability, T/C [4] 97.2% | viability, T/C [5] 109% | viability, T/C [6] 103% | viability, T/C [7] 117% | viability, T/C [8] 94.9% | viability, T/C [9] 90.8% | viability, T/C [10] 96.2% | viability, T/C [11] 92.6% | viability, T/C [12] 100% | viability, T/C [13] 106% | viability, T/C [14] 97.5% | viability, T/C [15] 93.2% | viability, T/C [16] 90.8% | viability, T/C [17] 103% | viability, T/C [18] 93.2% | viability, T/C [19] 94.5% | viability, T/C [20] 104% | viability, T/C [21] 100% | viability, T/C [22] 87.2% | viability, T/C [23] 101% | viability, T/C [24] 103% | viability, T/C [25] 108% | viability, T/C [26] 107% | viability, T/C [27] 106% | viability, T/C [28] 94.2% | viability, T/C [29] 99.5% | viability, T/C [30] 96.2% | viability, T/C [31] 88% | viability, T/C [32] 103% | viability, T/C [33] 96.3% | viability, T/C [34] 92.2% | viability, T/C [35] 107% | viability, T/C [36] 97.2%
